Data taken from patent US9822157B2 (priority 2013, dated 2017).
pEC50: −log10 of the molar value. Read-outs that look alike come from different tables or passages of the source. * marks the point of attachment. Palmitoyl = CCCCCCCCCCCCCCCC(=O)*

Columns and labels:
[1] = target: T1, human ferroportin (Homo sapiens, UniProt Q9NP59); format: cell-based; settings: for pEC50 / Potency EC50 (nM): Hepcidin analog peptides; for pEC50: read-out: Potency EC50; for % Activity At 1 uM: at 1 uM peptide, monomers and disulphide-linked dimers
T1 sequence (Q9NP59 1-571): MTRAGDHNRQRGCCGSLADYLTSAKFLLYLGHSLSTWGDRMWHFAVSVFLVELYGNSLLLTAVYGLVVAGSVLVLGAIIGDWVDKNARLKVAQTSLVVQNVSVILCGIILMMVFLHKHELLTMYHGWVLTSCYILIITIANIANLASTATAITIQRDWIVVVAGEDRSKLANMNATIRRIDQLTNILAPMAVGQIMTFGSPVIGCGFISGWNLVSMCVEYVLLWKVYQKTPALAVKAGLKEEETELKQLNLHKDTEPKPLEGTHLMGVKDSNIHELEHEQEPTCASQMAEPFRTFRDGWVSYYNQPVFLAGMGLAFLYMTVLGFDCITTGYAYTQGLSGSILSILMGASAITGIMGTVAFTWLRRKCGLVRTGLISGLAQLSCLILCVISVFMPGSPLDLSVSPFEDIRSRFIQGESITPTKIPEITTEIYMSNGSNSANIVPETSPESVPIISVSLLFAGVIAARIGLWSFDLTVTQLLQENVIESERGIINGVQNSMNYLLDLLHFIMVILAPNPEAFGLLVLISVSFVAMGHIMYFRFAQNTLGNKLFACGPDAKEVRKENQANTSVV
Text: The cDNA encoding the human ferroportin (SLC40A1) was cloned from a cDNA clone from Origene (NM_014585). The DNA encoding the ferroportin was amplified by PCR using primers also encoding terminal restriction sites for subcloning, but without the termination codon. The ferroportin receptor was subcloned into a mammalian GFP expression vector containing a neomycin (G418) resistance marker in such that the reading frame of the ferroportin was fused in frame with the GFP protein. The fidelity of the DNA encoding the protein was confirmed by DNA sequencing. HEK293 cells were used for transfection of the ferroportin-GFP receptor expression plasmid. The cells were grown according to standard protocol in growth medium and transfected with the plasmids using Lipofectamine (manufacturer's protocol, Invitrogen). […] The cells were propagated and frozen in aliquots.
A retro inverse peptide is a peptide with a reversed sequence in all D amino acids. […] The EC50 of these reference compounds for ferroportin degradation was determined according to the activity assay described above.

[2] = Stability in human serum (LC-MS); format: in vitro ADME; settings: 10 μM peptide, 37 degrees C, up to 24 hours
Protocol: Serum stability experiments were undertaken to complement the in vivo results and assist in the design of potent, stable Ferroportin agonists. In order to predict the stability in humans, ex vivo stability studies were initially performed in human serum.
Samples were taken at various time points up to 24 hours. The samples were separated from serum proteins and analysed for the presence of the peptide of interest using LC-MS. The amount of intact peptide in each sample was calculated using the analyte peak area in relation to the zero time point.
(§1) The peptides were also tested for other pharmacokinetic/pharmacodynamic (PK/PD) parameters using methods commonly know by the skilled artisan. These parameters included determinations regarding stability (hours stable in plasma from the indicated human or rat subject), half-life in mice, and in vitro activity (EC50), tested as described in Example 2.

[3] = test system: serum iron; assay: Reduction of free plasma iron in rats (serum iron after i.p. dosing); format: in vivo, Sprague-Dawley rats; settings: IP dosing, FIGS. 2 and 3
Protocol: At Day 1, the animals were monitored for free Fe^2+ in serum. In order to reach a homogenous serum level, Fe^2+ was analyzed and a homogenous cohort of 7 or 8 animals randomized to each treatment group. At Day 2, an acute experiment where the animals were subjected to i.p. dosing of test compound and subsequent tail vein blood samples. Prior to dosing, the animals were put under a heating lamp for 3-5 minutes. Blood samples were drawn from the tail vein from all animals in order to determine serum iron levels prior to vehicle or compound dosing. Animals were dosed i.p. with 1 ml of test substance in vehicle or just vehicle and blood samples of 250 μl was drawn from each animal at t=0, 60, 120, 240, 360 min and 24 hours in the study of the reference compound. The dose response study performed with Retro Inverse (RI) mini-Hepcidin (Reference compound), and the efficacy study performed with Compound No. 2 were performed as two separate experiments. […]
Male Sprague-Dawley rats weighing 200-250 g were used in the study. […] Humane endpoints were applied, according to OECD's “Guidelines for Endpoints in Animal Study Proposals.” The animals were monitored daily.
Iron content in plasma/serum is measured for iron content using a colorimetric assay on the Cobas c 111 according to instructions from the manufacturer of the assay (assay: IRON2: ACN 661). […]

[4] = test system: serum iron; assay: In vivo serum iron reduction in mice; parameters: species or system mice (C57-BL6); settings: tested in rats or in mice
Protocol: Instead of rats, mice (C57-BL6) were tested.
A similar experiment was performed with lower doses to assess the dose response of these compounds for inducing serum iron reduction. Methods were as described above in this Example, except for the following parameters: n=4 mice/group, however n=8 for the vehicle, as two groups were pooled. Mice were administered test compounds at two separate dosages (300 nmol/kg or 1000 nmol/kg), via subcutaneous injection. Serum iron levels were assessed as in Example 8 two hours after peptide or vehicle injection. […] Moreover, it was clear that several of the compounds were able to induce maximum effects at dosages as low as 300 nmol/kg.
The route of peptide administration was via subcutaneous injection, unless otherwise indicated as having been via intraperitoneal injection (this is noted on the table by “i.p.” in parentheses following the “yes” or “no” determination).
as §1

[5] = test system: serum iron; assay: In vivo serum iron reduction in mice; parameters: species or system mice (C57-BL6); settings: C57BL6 mice, time course, FIG. 6
[6] = read-out: EC50 (nM) (n > 3), alanine scan of Compound 18
[7] = read-out: EC50 (nM) (n = 3), in vitro activity as in Example 2, peptide monomers and dimers dimerized through a single disulphide linkage, n = 3

## H-DTHFPICIFGPRSKGWACM-NH2 (cysteine pairing not given here) [Compound 47]
[1]
  pEC50: 6.50
[1]; [6]
  EC50: 313 nM
[2]
  t½: ~40 h

## H-DTHFPICIFGPRSKGWVCM-NH2 (cysteine pairing not given here) [Compound 18]
[1]
  pEC50: 6.90
[1]; [6]
  EC50: 125 nM
[2]
  t½: 2.32 h

## Hy-DPhe-DIle-DCys-DIle-DPro-DPhe-DHis-DThr-DAsp-NH2 [RI-Mini Hepcidin, reference compound]
[3]
  serum iron level: in neither case significant

## Hy-DTHF-(D)--Ala-CIIF-NH2 [Compound 281]
[1]
  Potency EC50 (nM): Inactive
[1]; alanine scan of Compound 1
  EC50 (nM) (n > 3): Not active

## Hy-DTHF-[Sarc]-CIIFGPRSKGWVCK-NH2 [Compound 127]
[1]
  Potency EC50 (nM): Inactive

## Hy-DTHF-[β-Ala]-CIIFGPRSKGWVCK-NH2 [Compound 129]
[1]
  Potency EC50 (nM): Inactive

## Hy-DTHFPCIIF-NH2 [Compound 1]
[1]
  % Activity At 1 uM: 92%

## Hy-DTHFPIC(1)IFC(2)C(3)GC(2)C(4)HRSKC(3)GMC(4)C(1)KT-OH [Hepcidin, reference compound]
[4]; 300 nmol/kg
  In Vivo Activity (s.c.) 300 nmol/kg: Yes
[4]; 1000 nmol/kg
  In Vivo Activity (s.c.) 1000 nmol/kg: Yes

## Hy-ETHFPCIIF-NH2 [Compound 300]
[1]
  % Activity At 1 uM: 77%
[1]; [7]
  EC50: > 300 nM

## Hy-LTHFPCIIF-NH2 [Compound 299]
[1]
  % Activity At 1 uM: 64%
[1]; [7]
  EC50: > 300 nM

## Isovaleric acid-DTHAPCIKFEPRSKGWECK-NH2 [Compound 243]
[1]
  Potency EC50 (nM): Inactive

## Isovaleric acid-DTHFPAIIF-NH2 [Compound 289]
[1]
  Potency EC50 (nM): Inactive

## Isovaleric acid-DTHFPCIEFGPRSKGWVCK-NH2 [Compound 15]
[4]; 1000 nmol/kg
  In Vivo Activity (s.c.) 1000 nmol/kg: Minor

## Isovaleric acid-DTHFPCIIF-NH2 [Compound 288]
[1]
  % Activity At 1 uM: 100%

## Isovaleric acid-DTHFPCIIFEPRSKGWVCK-NH2 [Compound 105]
[4]; 300 nmol/kg
  In Vivo Activity (s.c.) 300 nmol/kg: Yes
[4]; 1000 nmol/kg
  In Vivo Activity (s.c.) 1000 nmol/kg: Yes

## Isovaleric acid-DTHFPCIIFGPRSKGCK-NH2 [Compound 115]
[4]; 1000 nmol/kg
  In Vivo Activity (s.c.) 1000 nmol/kg: No

## Isovaleric acid-DTHFPCIIFGPRSRGWVCK-NH2 [Compound 3]
[4]; 300 nmol/kg, i.p.
  In Vivo Activity 300 nmol/kg (i.p.): No (i.p.)
[4]; 1000 nmol/kg, i.p.
  In Vivo Activity 1000 nmol/kg (i.p.): No (i.p.)

## Isovaleric acid-DTHFPCIKF-K(PEG8)-PRSKGWVCK-NH2 [Compound 150]
[4]; 300 nmol/kg
  In Vivo Activity (s.c.) 300 nmol/kg: Yes

## Isovaleric acid-DTHFPCIKF-NH2 [Compound 291]
[1]
  % Activity At 1 uM: 100%

## Isovaleric acid-DTHFPCIKFEPRSKGCK-NH2 [Compound 184]
[4]; 300 nmol/kg
  In Vivo Activity (s.c.) 300 nmol/kg: Yes
[4]; 1000 nmol/kg
  In Vivo Activity (s.c.) 1000 nmol/kg: Yes

## Isovaleric acid-DTHFPCIKFEPRSKGWVCK-NH2 [Compound 181]
[4]; 300 nmol/kg
  In Vivo Activity (s.c.) 300 nmol/kg: Yes
[5]
  serum iron, PK/PD effects: a rapid decrease in serum iron, which was transient

## Isovaleric acid-DTHFPCIKFGPRSKGWVC-K(PEG8)-NH2 [Compound 153]
[4]; 300 nmol/kg
  In Vivo Activity (s.c.) 300 nmol/kg: Yes
[4]; 1000 nmol/kg
  In Vivo Activity (s.c.) 1000 nmol/kg: Yes
[5]
  serum iron, PK/PD effects: sustained

## Isovaleric acid-DTHFPCIKFGPRSKGWVCK-NH2 [Compound 9]
[4]; 300 nmol/kg
  In Vivo Activity (s.c.) 300 nmol/kg: Yes
[4]; 1000 nmol/kg
  In Vivo Activity (s.c.) 1000 nmol/kg: Yes

## Isovaleric acid-DTHFPCIQFGPRSKGWVCK-NH2 [Compound 10]
[4]; 1000 nmol/kg
  In Vivo Activity (s.c.) 1000 nmol/kg: Minor

## Isovaleric acid-DTHFPICIFGPRS-K(PEG8)-GWVC-NH2 [Compound 176]
[4]; 300 nmol/kg
  In Vivo Activity (s.c.) 300 nmol/kg: Yes

## Isovaleric acid-DTHFPICIFGPRSKGWVC-NH2 [Compound 2]
[3]
  serum iron level: a decrease in serum iron level that was comparable to that observed after injection of the positive control
[4]; 300 nmol/kg
  In Vivo Activity (s.c.) 300 nmol/kg: Yes
[4]; 1000 nmol/kg
  In Vivo Activity (s.c.) 1000 nmol/kg: Yes

## Isovaleric acid-DTHFPSIIF-NH2 [Compound 290]
[1]
  Potency EC50 (nM): Inactive

## Isovaleric acid-HFPCIIFGPRSKGWVCK-NH2 [Compound 100]
[1]
  Potency EC50 (nM): Inactive

## Isovaleric acid-THFPCIIFGPRSKGWVCK-NH2 [Compound 98]
[1]
  Potency EC50 (nM): Inactive

## Palmitoyl-DTHFPCIKFGPRSKGWVCK-NH2 (cysteine pairing not given here) [Compound 216]
[1]
  pEC50: < 6.00
